The values that follow come from patent publication US20240096447A1, “METHODS OF GENERATING PHENOCOPY SIGNATURES AND USES THEREOF” (Wisconsin Alumni Research Foundation, priority 2022, published 2024).

Assay [1] concerns breast cancer patients. Kind of assay: Response to neoadjuvant everolimus in a breast cancer cohort (GSE119262), by mTOR phenocopy status. The class given is in vivo, human. The settings on record: neoadjuvant everolimus followed by surgery.
For assay [2], the system named is breast cancer patients. Briefly: Pathologic complete response in the chemoimmunotherapy (pembrolizumab) arm of the I-SPY2 trial, by TP53 loss phenocopy status. The class given is in vivo, human. The settings on record: pembrolizumab with anthracycline/taxane-based neoadjuvant chemotherapy backbone. The source says:
In addition, we sought to identify published cohorts with pre-chemotherapy RNA profiling with pathologic response data. The majority of data we could find was in the setting of breast cancer neoadjuvant chemotherapy, where response could be assessed at the time of surgery. Our dataset evaluating clinical treatment response and the phenocopy signatures in breast cancer included 18 breast cancer cohorts with gene expression data downloaded from the Gene Expression Omnibus (GEO) with the following accession numbers: GSE22093, GSE25055, GSE41998, GSE20194, GSE4779, GSE8465, GSE66399, GSE16446, GSE20271, GSE18864, GSE25065, GSE32646, GSE164458, GSE22226, GSE192341, GSE163882, GSE34138, GSE32603, and one additional publicly available TNBC gene expression cohort^48. Finally, we utilized gene expression and clinical response data from the I-SPY2 trial as an independent clinical validation cohort for our phenocopy signatures and breast cancer neoadjuvant therapy response, also downloaded from GEO (GSE194040).
Each of the breast cancer datasets had annotations for pathologic response (pCR versus no pCR) for each sample. The TP53 phenocopy signature was then applied without modification to pre-treatment samples from each breast cancer study, with normalization/batch correction as above. […]

`CO[C@H]1C[C@@H]2CC[C@@H](C)[C@@](O)(O2)C(=O)C(=O)N2CCCC[C@H]2C(=O)O[C@H]([C@H](C)C[C@@H]2CC[C@@H](OCCO)[C@H](OC)C2)CC(=O)[C@H](C)/C=C(\C)[C@@H](O)[C@@H](OC)C(=O)[C@H](C)C[C@H](C)/C=C/C=C/C=C/1C` [everolimus]: the “tumors that responded to anti-mTOR therapy” value is reported as 75.8% in the assay with breast cancer patients [1] (pre-treatment non-mTOR phenocopy tumors) and 100% with breast cancer patients [1] (pre-treatment samples predicted as mTOR mutation phenocopies).

Regarding pembrolizumab, the pCR rate in the assay with breast cancer patients [2] (TP53 loss phenocopy samples) is reported as 64%; in the assay on breast cancer patients [2] (non-phenocopy samples) it was 28%.
